In US20060069132A1, “Azolecarboxamide herbicides” (priority 2004, published 2006):

Key:
morningglory [1] = assay: Test A pre-/postemergence herbicide test; type: in vivo, Ipomoea spp.; settings: for Plant response rating, Morningglory: Postemergence; for Morningglory plant response rating: Preemergence
Summary of the method: (§1)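 Visual injury rating on a 0–100 scale (0 no effect, 100 complete control) versus untreated controls, about ten days after treatment in greenhouse. Pre: directed soil spray onto seeded sandy loam. Post: spray to runoff on plants 2–10 cm tall at one- to two-leaf stage.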

barnyardgrass [2] = assay: Test B pre-/postemergence herbicide test; type: in vivo, Echinochloa crus-galli
Summary of the method: (§2)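 Herbicidal effect was judged by eye on a 0–100 scale after plants stood 13 to 15 days in the greenhouse following pre- or postemergence treatment with surfactant-containing formulations.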

velvetleaf [3] = assay: Test B pre-/postemergence herbicide test; type: in vivo, Abutilon theophrasti
Summary of the method: (§3)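 Response was scored visually 13 to 15 days after treatment against untreated greenhouse controls, 0 meaning no effect and 100 complete control. Formulations (solvent mixture plus surfactant) went onto soil after planting, onto foliage of 1- to 4-leaf plants, and onto 2-leaf plants in a flooded paddy set including rice and barnyardgrass.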

ducksalad = assay: Test B flooded paddy test; type: in vivo, Heteranthera limosa; settings: 1000 g ai/ha, visual rating, scale 0 to 100 (0 no effect, 100 complete control), 13 to 15 days
Summary of the method: (§4)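 Treated at 2-leaf (paddy) or 1–4-leaf, 2–18 cm (postemergence); greenhouse 13–15 d; visual score vs control, 0 none to 100 complete control; dash = not tested.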

barnyardgrass [4] = assay: Test A pre-/postemergence herbicide test; type: in vivo, Echinochloa crus-galli; settings: for Plant response rating, Barnyardgrass: Postemergence; for Barnyardgrass plant response rating: Preemergence
Summary of the method: as §1

barnyardgrass [5] = assay: Test B flooded paddy test; type: in vivo, Echinochloa crus-galli; settings: 1000 g ai/ha, visual rating, scale 0 to 100 (0 no effect, 100 complete control), 13 to 15 days
Summary of the method: as §4

large crabgrass [6] = assay: Test A pre-/postemergence herbicide test; type: in vivo, Digitaria sanguinalis; settings: for Plant response rating, Crabgrass, Large: Postemergence; for Crabgrass, Large plant response rating: Preemergence
Summary of the method: as §1

corn = assay: Test B pre-/postemergence herbicide test; type: in vivo, Zea mays
Summary of the method: as §3

Surinam grass = assay: Test B pre-/postemergence herbicide test; type: in vivo, Urochloa decumbens
Summary of the method: as §3

lambsquarters = assay: Test B pre-/postemergence herbicide test; type: in vivo, Chenopodium album
Summary of the method: as §3

redroot pigweed = assay: Test A pre-/postemergence herbicide test; type: in vivo, Amaranthus retroflexus; settings: for Plant response rating, Pigweed: Postemergence; for Pigweed plant response rating: Preemergence
Summary of the method: as §1

[7] = tested on: small flower umbrella sedge; assay: Test B flooded paddy test; type: in vivo, Cyperus difformis; settings: 1000 g ai/ha, visual rating, scale 0 to 100 (0 no effect, 100 complete control), 13 to 15 days
Summary of the method: as §4

rice [8] = assay: Test B pre-/postemergence herbicide test; type: in vivo, Oryza sativa
Summary of the method: as §3

giant foxtail [9] = assay: Test A pre-/postemergence herbicide test; type: in vivo, Setaria faberi; settings: for Plant response rating, Foxtail, Giant: Postemergence; for Foxtail, Giant plant response rating: Preemergence
Summary of the method: as §1

wheat = assay: Test B postemergence herbicide test; type: in vivo, Triticum aestivum; design: key to Wheat plant response rating: 0 = no effect, 100 = complete control; settings: scale 0 (no effect) to 100 (complete control)
Summary of the method: (§5)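 After treating 2-leaf paddy plants or 2–18 cm postemergence plants (1 to 4 leaves) with formulated chemical, researchers kept them in a greenhouse for 13–15 days. Effects were judged visually versus controls: 0 indicates none, 100 total control.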

large crabgrass [10] = assay: Test B pre-/postemergence herbicide test; type: in vivo, Digitaria sanguinalis
Summary of the method: as §3

cocklebur = assay: Test B pre-/postemergence herbicide test; type: in vivo, Xanthium strumarium
Summary of the method: as §2

velvetleaf [11] = assay: Test A pre-/postemergence herbicide test; type: in vivo, Abutilon theophrasti; settings: for Velvetleaf plant response rating: Preemergence
Summary of the method: as §1

pigweed = assay: Test B pre-/postemergence herbicide test; type: in vivo, Amaranthus retroflexus
Summary of the method: as §3

blackgrass = assay: Test B postemergence herbicide test; type: in vivo, Alopecurus myosuroides; settings: scale 0 (no effect) to 100 (complete control)
Summary of the method: as §4

rice [12] = assay: Test B flooded paddy test; type: in vivo, Oryza sativa; settings: 1000 g ai/ha, visual rating, scale 0 to 100 (0 no effect, 100 complete control), 13 to 15 days
Summary of the method: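 Postemergence plants were sprayed with formulated test chemicals at 2 to 18 cm height (1- to 4-leaf stage); paddy species were grown to the 2-leaf stage. After 13 to 15 days in a greenhouse, injury was rated visually against untreated controls on a 0–100 scale (0 = no effect, 100 = complete control).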

wild oat = assay: Test B postemergence herbicide test; type: in vivo, Avena fatua; settings: scale 0 (no effect) to 100 (complete control)
Summary of the method: as §5

giant foxtail [13] = assay: Test B pre-/postemergence herbicide test; type: in vivo, Setaria faberi
Summary of the method: as §3

morningglory [14] = assay: Test B pre-/postemergence herbicide test; type: in vivo, Ipomoea coccinea
Summary of the method: as §2

[15] = 500 g ai/ha, 0 to 100 scale, 0 no effect, 100 complete control
[16] = 2000 g ai/ha, 0 to 100 scale, 0 no effect, 100 complete control
[17] = 500 g ai/ha, visual rating, 0 to 100 scale (0 no effect, 100 complete control)
[18] = Postemergence, 500 g ai/ha, visual rating after 13 to 15 days, scale 0 (no effect) to 100 (complete control)
[19] = Preemergence, 500 g ai/ha, scale 0 to 100
[20] = postemergence, 125 g ai/ha, visual rating, scale 0 (no effect) to 100 (complete control)
[21] = preemergence, 125 g ai/ha, 0 to 100 scale, 0 is no effect, 100 is complete control
[22] = Postemergence, 500 g ai/ha, visual rating after 13 to 15 days
[23] = postemergence, 125 g ai/ha, visual rating

## CCN(CC)C(=O)c1cc(NC(=O)c2cc(C(C)(C)C)nn2CC)ccc1F [Compound 59]
Morningglory [1]; [15]
  Plant response rating, Morningglory: 10
Morningglory [1]; [16]
  Plant response rating, Morningglory: 10
  Morningglory plant response rating: 40
Morningglory [1]; [17]
  Morningglory plant response rating: 10
Barnyardgrass [2]; [18]
  Plant response rating, Barnyardgrass: 20
Barnyardgrass [2]; [19]
  Barnyardgrass plant response rating: 70
Barnyardgrass [2]; [20]
  Barnyardgrass plant response rating: 0
Barnyardgrass [2]; [21]
  Plant response rating, Barnyardgrass: 10
Velvetleaf [3]; [18]
  Plant response rating, Velvetleaf: 20
Velvetleaf [3]; [19]
  Velvetleaf plant response rating: 40
Velvetleaf [3]; [20]
  Velvetleaf plant response rating: 20
Velvetleaf [3]; [21]
  Plant response rating, Velvetleaf: 10
ducksalad
  Ducksalad plant response rating: 0
Barnyardgrass [4]; [15]
  Plant response rating, Barnyardgrass: 20
Barnyardgrass [4]; [16]
  Plant response rating, Barnyardgrass: 30
  Barnyardgrass plant response rating: 60
Barnyardgrass [4]; [17]
  Barnyardgrass plant response rating: 25
Barnyardgrass [5]
  Barnyardgrass plant response rating: 0
Large crabgrass [6]; [15]
  Plant response rating, Crabgrass, Large: 15
Large crabgrass [6]; [16]
  Plant response rating, Crabgrass, Large: 20
  Crabgrass, Large plant response rating: 45
Large crabgrass [6]; [17]
  Crabgrass, Large plant response rating: 25
corn; [18]
  Plant response rating, Corn: 20
corn; [19]
  Corn plant response rating: 0
corn; [20]
  Corn plant response rating: 10
corn; [21]
  Plant response rating, Corn: 0
Surinam grass; [18]
  Plant response rating, Surinam Grass: 20
Surinam grass; [19]
  Surinam Grass plant response rating: 10
Surinam grass; [20]
  Surinam Grass plant response rating: 10
Surinam grass; [21]
  Plant response rating, Surinam Grass: 0
lambsquarters; [18]
  Plant response rating, Lambsquarters: 90
lambsquarters; [19]
  Lambsquarters plant response rating: 100
lambsquarters; [20]
  Lambsquarters plant response rating: 80
lambsquarters; [21]
  Plant response rating, Lambsquarters: 90
Redroot pigweed; [15]
  Plant response rating, Pigweed: 40
Redroot pigweed; [16]
  Plant response rating, Pigweed: 75
  Pigweed plant response rating: 100
Redroot pigweed; [17]
  Pigweed plant response rating: 90
[7]
  Sedge, Umbrella plant response rating: 0
Rice [8]; [19]
  Rice plant response rating: 0
Rice [8]; [21]
  Plant response rating, Rice: 0
Giant foxtail [9]; [15]
  Plant response rating, Foxtail, Giant: 15
Giant foxtail [9]; [16]
  Plant response rating, Foxtail, Giant: 20
  Foxtail, Giant plant response rating: 65
Giant foxtail [9]; [17]
  Foxtail, Giant plant response rating: 5
wheat; [22]
  Plant response rating, Wheat: 10
wheat; [23]
  Wheat plant response rating: 0
Large crabgrass [10]; [18]
  Plant response rating, Crabgrass, Large: 20
Large crabgrass [10]; [19]
  Crabgrass, Large plant response rating: 20
Large crabgrass [10]; [20]
  Crabgrass, Large plant response rating: 10
Large crabgrass [10]; [21]
  Plant response rating, Crabgrass, Large: 10
cocklebur; [18]
  Plant response rating, Cocklebur: 40
cocklebur; [19]
  Cocklebur plant response rating: 0
cocklebur; [20]
  Cocklebur plant response rating: 10
cocklebur; [21]
  Plant response rating, Cocklebur: 0
Velvetleaf [11]; Postemergence, 2000 g ai/ha, 0 to 100 scale, 0 no effect, 100 complete control
  Plant response rating, Velvetleaf: 20
Velvetleaf [11]; [17]
  Velvetleaf plant response rating: 15
Velvetleaf [11]; [16]
  Velvetleaf plant response rating: 55
pigweed; [18]
  Plant response rating, Pigweed: 80
pigweed; [19]
  Pigweed plant response rating: 100
pigweed; [20]
  Pigweed plant response rating: 70
pigweed; [21]
  Plant response rating, Pigweed: 100
blackgrass; [22]
  Plant response rating, Blackgrass: 0
blackgrass; [23]
  Blackgrass plant response rating: 0
Rice [12]
  Rice plant response rating: 0
Wild oat; [22]
  Plant response rating, Oat, Wild: 20
Wild oat; [23]
  Oat, Wild plant response rating: 10
Giant foxtail [13]; [18]
  Plant response rating, Foxtail, Giant: 20
Giant foxtail [13]; [19]
  Foxtail, Giant plant response rating: 40
Giant foxtail [13]; [20]
  Foxtail, Giant plant response rating: 0
Giant foxtail [13]; [21]
  Plant response rating, Foxtail, Giant: 0
Morningglory [14]; [18]
  Plant response rating, Morningglory: 20
Morningglory [14]; [19]
  Morningglory plant response rating: 10
Morningglory [14]; [20]
  Morningglory plant response rating: 20
Morningglory [14]; [21]
  Plant response rating, Morningglory: 0
